Assay results from US5430062A, “Stilbene derivatives as anticancer agents” (priority 1993, dated 1995).
Several values for one entry are separate records, joined by “and”; a condition that tells them apart may be missing. Identical values can stand only once.

What was measured:
SK-MEL-5 melanoma = test: Cytotoxicity, SK-MEL-5 (Table XI panel); assay type: cell-based; settings: Homo sapiens, read-out: Log10 GI50, SK-MEL-5 (converted)
Text: (§1) A total of 55 cell lines from the leukemia, non-small cell lung cancer, small cell lung cancer, colon cancer, CNS cancer, melanoma, ovarian cancer, and renal cancer panels were examined.

UACC-62 melanoma = test: Cytotoxicity, UACC-62; assay type: cell-based; settings: Homo sapiens, read-out: Log10 GI50, UACC-62 (converted)
Text: as §1

M14 melanoma = test: Cytotoxicity, M14; settings: read-out: cytotoxicity GI50, M14, 50% growth inhibition, average of two determinations, 8640 min, Hydrochloride
ACHN renal cancer = test: Cytotoxicity, ACHN; assay type: cell-based
Text: as §1

[1] = test system: EKCK non-small cell lung cancer; test: Cytotoxicity, EKCK; assay type: cell-based; settings: read-out: Log10 GI50, EKCK (converted)
Text: as §1

XF498 CNS cancer = test: Cytotoxicity, XF498; assay type: cell-based; settings: Homo sapiens, read-out: Log10 GI50, XF498 (converted)
Text: as §1

MOLT-4 leukemia = test: Cytotoxicity, MOLT-4; assay type: cell-based; settings: Homo sapiens, read-out: Log10 GI50, MOLT-4 (converted)
Text: as §1

[2] = test system: NCI-H23 non-small cell lung cancer; test: Cytotoxicity, NCI-H23; assay type: cell-based; settings: Homo sapiens, read-out: Log10 GI50, NCI-H23 (converted)
Text: as §1

[3] = test system: HOP-92 non-small cell lung cancer; test: Cytotoxicity, HOP-92; assay type: cell-based; settings: Homo sapiens, read-out: Log10 GI50, HOP-92 (converted)
Text: as §1

SF-539 CNS cancer = test: Cytotoxicity, SF-539; assay type: cell-based; settings: Homo sapiens, read-out: Log10 GI50, SF-539 (converted)
Text: as §1

MALME-3M melanoma = test: Cytotoxicity, MALME-3M; assay type: cell-based; settings: Homo sapiens, read-out: Log10 GI50, MALME-3M (converted)
Text: as §1

Water solubility = assay type: physicochemical
U251 CNS cancer = test: Cytotoxicity, U251; assay type: cell-based; settings: Homo sapiens, U-251; read-out: Log10 GI50, U251 (converted)
Text: as §1

KM12 colon cancer = test: Cytotoxicity, KM12; assay type: cell-based; settings: Homo sapiens, read-out: Log10 GI50, KM12 (converted)
Text: as §1

A498 renal cancer = test: Cytotoxicity, A498; assay type: cell-based; settings: Homo sapiens, read-out: Log10 GI50, A498 (converted)
Text: as §1

LOX IMVI melanoma = test: Cytotoxicity, LOX IMVI; assay type: cell-based; settings: Homo sapiens, read-out: Log10 GI50, LOX IMVI (converted)
Text: as §1

OVCAR-3 ovarian cancer = test: Cytotoxicity, OVCAR-3; settings: read-out: cytotoxicity GI50, OVCAR-3, 50% growth inhibition, average of two determinations, 8640 min, Hydrochloride
KM20L2 colon cancer = test: Cytotoxicity, KM20L2; assay type: cell-based; settings: Homo sapiens, KM-20L2; read-out: Log10 GI50, KM20L2 (converted)
Text: as §1

SNB-75 CNS cancer = test: Cytotoxicity, SNB-75; assay type: cell-based; settings: Homo sapiens, read-out: Log10 GI50, SNB-75 (converted)
Text: as §1

OVCAR-4 ovarian cancer = test: Cytotoxicity, OVCAR-4; assay type: cell-based; settings: Homo sapiens, read-out: Log10 GI50, OVCAR-4 (converted)
Text: as §1

SF-268 CNS cancer = test: Cytotoxicity, SF-268; assay type: cell-based; settings: Homo sapiens, SF-268, read-out: Log10 GI50, SF-268 (converted)
Text: as §1

SW-620 colon cancer = test: Cytotoxicity, SW-620; assay type: cell-based; settings: Homo sapiens, read-out: Log10 GI50, SW-620 (converted)
Text: as §1

[4] = test system: DMS 273 small cell lung cancer; test: Cytotoxicity, DMS 273; settings: Hydrochloride

Structure (SMILES): COc1cc(CNc2ccc(C)cc2)cc(OC)c1OC.Cl [110a, 4-Methyl-N-(3,4,5-trimethoxybenzyl)aniline Hydrochloride]
- GI50 (SK-MEL-5 melanoma): 0.912 µM
- GI50 (UACC-62 melanoma): 0.575 µM
- GI50 (M14 melanoma): 0.292 µM
- GI50 (ACHN renal cancer; Homo sapiens, ACHN, read-out: Log10 GI50, ACHN (converted)): < 0.1 µM
- Log10 GI50, ACHN (ACHN renal cancer; Hydrochloride): -7.01
- GI50 [1]: 0.741 µM
- GI50 (XF498 CNS cancer): 0.468 µM
- GI50 (MOLT-4 leukemia): 0.427 µM
- GI50 [2]: 0.407 µM
- GI50 [3]: 18.6 µM
- GI50 (SF-539 CNS cancer): 0.316 µM
- GI50 (MALME-3M melanoma): 0.468 µM
- water solubility (in words) (Water solubility): water soluble
- GI50 (U251 CNS cancer): 0.331 µM
- GI50 (KM12 colon cancer): 0.759 µM
- GI50 (A498 renal cancer): > 100 µM
- GI50 (LOX IMVI melanoma): 0.851 µM
- GI50 (OVCAR-3 ovarian cancer): 0.214 µM
- GI50 (KM20L2 colon cancer): 0.251 µM
- GI50 (SNB-75 CNS cancer): 0.389 µM
- GI50 (OVCAR-4 ovarian cancer): 21.4 µM
- GI50 (SF-268 CNS cancer): 0.912 µM
- GI50 (SW-620 colon cancer): 0.11 µM
- Log10 GI50, DMS 273 [4]: < -7.00 and -7.03
- GI50 ([4]; read-out: cytotoxicity GI50, DMS 273, 50% growth inhibition, average of two determinations, 8640 min, 8640 min): 0.104 µM
